Measurements: paper PMC10813753 (Biology, 2024)
“And” between values parts separate entries of the source, which are not always exact repeats. Identical values can stand only once.

Key:
Calf thymus CT DNA = test: CT DNA viscosity titration; assay type: binding; details: 25 °C, 10 mM sodium phosphate buffer pH 7.2, mean slope
Protocol: The DNA viscosity titration was conducted as previously reported. For that purpose, Calf thymus CT DNA was used. DNA and compound 1 solutions were freshly prepared in 10 mM NaH2PO4/Na2HPO4 buffer, pH = 7.2. CT DNA solutions (~0.35 mM, nt) were equilibrated for 20 min at 25 °C in a thermostated bath, and 20 flow times were then recorded. Several aliquots (ca. 25–60 μL each) of a solution of ligand 1 (~1.8 mM) were sequentially added. After a 20 min equilibration at 25 °C, flow times were registered. Finally, viscosities (μ) were calculated at each titration point, from the averaged flow times recorded and the viscometer constant. The viscosity graphs were obtained by plotting (μ/μ0)^1/3 versus r, the molar ratio of bound ligand to DNA. The parameter μ0 represents the DNA solution viscosity in the absence of a compound.
Viscosity titration assays are known to provide useful information, mainly in reversible dsDNA-ligand non-covalent binding modes, and, especially, they are normally used to differentiate between classical DNA intercalants from groove or external binders. The theory of Cohen and Eisenberg establishes that the existence (or not) of changes in the viscosity of a DNA solution upon binding to small-molecule ligands could be correlated to the ligand binding mode. […]

[1] = test system: PC-3 cells (prostate tumor); test: MTT viability assay PC-3; assay type: cell-based, human; details: for selectivity index (SI), prostate tumor PC3 versus prostate non-tumor RWPE-1: from MTT IC50 values
Protocol: (§1) A panel of five tumor cell lines and two normal cell lines was used to preliminarily test the cytotoxicity of compounds 1–4, and the experiments were conducted as previously reported. All human cell lines were acquired from American Type Culture Collection (ATCC): tumor PC-3 and DU145 (prostate), HeLa (cervix), MCF7 (breast) and HT29 (colorectal) and healthy HFF-1 (fibroblast) and RWPE-1 (prostate). The cell catalogue reference and culture media used in the experiments were CRL-1435^TM, RPMI (PC-3), HTB-81™, RPMI (DU145), CCL-2^TM, DMEM (HeLa), HTB-22^TM, DMEM (MCF-7), HTB-38^TM, modified McCoy’s 5a medium, Catalogue No. 30-2007 (HT29), SCRC-1041^TM, DMEM (HFF-1) and CRL-11609^TM, Keratinocyte-SFM (RWPE-1). Culture media were purchased from Merck: RPMI-1640, DMEM + 10% FBS (Fetal Bovine Serum) + […] (penicillin/streptomycin/amphotericin B). Media and supplements for RWPE-1 were from ThermoFisher (17005075, Madrid, Spain). MCF7 cells were additionally supplemented with insulin (0.001 mg/mL in 500 mL media). Cells were kept at 37 °C (5% CO2), and culture media were renewed three times per week. When the cells reached 80–100% confluence, they were trypsinized and centrifuged, and the concentration was adjusted to each experiment. Cells were seeded at a density of ~10,000 cells/well into 24-well plates. The cells were treated with ligands 1–4 or the cytotoxic agents PhenQE8, PhenDC3 or cisplatin at different concentrations (10 nM–100 μM). Compound solutions were freshly prepared using the appropriate culture medium. Triplicate experiments were run. For MTT viability assays, after 72 h incubation, 50 μL of MTT (5 mg/mL) was added, and an additional incubation of 4 h was allowed. The medium in each well was then replaced by DMSO, and the absorbance was measured at 570 nm using an ELISA plate reader. Absorbances were normalized using negative controls (untreated cells, in triplicate, with a maximum of 0.9% DMSO content). Dose–response curves were obtained by plotting the percentage of viable cells versus logarithmic compound concentration. IC50 values were determined using Kaleidagragh^TM (3.52) software by adjusting the data to Equation 1/(1 + 10^(m2*(log(m1) − x))); m1 = 0.000003; m2 = 1.

[2] = test system: DU145 cells (prostate tumor); test: MTT viability assay DU145; assay type: cell-based, human; details: 72 h
Protocol: as §1

[3] = test system: HFF-1 cells (healthy fibroblasts); test: MTT viability assay HFF-1; assay type: cell-based, human; details: 72 h
Protocol: as §1

[4] = test system: RWPE-1 cells (healthy prostate); test: MTT viability assay RWPE-1; assay type: cell-based, human; details: 72 h
Protocol: as §1

HeLa cells [5] = test: Cell cycle analysis by flow cytometry, HeLa; assay type: cell-based, human; details: ½ IC50 concentration, 72 h
Protocol: For cell cycle experiments, exponentially growing HeLa cells in DMEM were seeded in 6-well plates at a density of 2.5 × 10^5/well. […] Untreated cells were used as controls. After washing with PBS, cells were detached with 0.25% trypsin/0.2% EDTA and centrifuged at 1500 rpm for 5 min at rt. The resulting pellets were mixed with cold 70% ethanol (0.5 mL) and kept at 4 °C for 30 min. Ethanol was removed by centrifugation, and the pellets were washed with 2 mL PBS + 2% BSA and centrifuged. After discarding the supernatants, a propidium iodide solution (PI/RNAse, FxCycle^TM, Invitrogen^TM ref. F10797, 0.5 mL, Thermo Fisher, Madrid, Spain) was added, mixed thoroughly and incubated for 15 min at room temperature prior to analysis by flow cytometry. A total of 10,000 events were registered for each sample. The obtained results were analyzed with the MacsQuantify 2.13.1 program (Miltenyi Biotech, Pozuelo de Alarcón, Spain) and represented as histograms.

HeLa cells [6] = test: Annexin V/PI FITC apoptosis assay, HeLa; assay type: cell-based, human; details: 20 μM, 48 h, in comparison to untreated cells
Protocol: For the Annexin V apoptosis experiments, approximately half of the cells used in combined experiments with cell cycle analysis were harvested via trypsinization, PBS washed and stained with the Annexin-V FITC & PI kit (Invitrogen^TM ref. V 13242, Thermo Fisher, Madrid, Spain) following a standard protocol. A total of 10,000 events were recorded, and the results obtained by flow cytometry were represented as dot plots.

Question: “2,2′-(1,10-Phenanthroline-2,9-diyl)-bis(methylene)-bis(hydrazine-1-carbothioamide) [compound 1]” was tested. Which “viscosity slope, (η/ηo)^1/3 versus r” value (Calf thymus CT DNA) did it give?
Answer: ca. 0.13

Question: What about the IC50 ([1]; MTT, 72 h) of the same substance?
Answer: 18 µM and 18.4 µM

Question: And the “selectivity index (SI), prostate tumor PC3 versus prostate non-tumor RWPE-1” value [1]?
Answer: 5

Question: And the “selectivity index (SI), prostate tumor PC3 versus prostate non-tumor RWPE-1” value ([1]; listed as neutral derivative)?
Answer: ~ 5

Question: And the IC50 [2]?
Answer: 62.2 ± 5.9 µM

Question: What about the IC50 [3] of the same substance?
Answer: 74.4 ± 3.1 µM

Question: And the IC50 [4]?
Answer: 90.8 ± 8.8 µM

Question: What about the “change in SubG0 population” value (HeLa cells [5]) of the same substance?
Answer: notably increased the number of cells in SubG0

Question: And the “increase in the number of early apoptotic and late apoptotic cells” value (HeLa cells [6])?
Answer: 20–25%
